According to patent US8507538B2, “Selective heterocyclic sphingosine 1 phosphate receptor modulators” (Receptos, Inc., priority 2009, dated 2013):

Molecular target: S1P1/EDG1 (Homo sapiens, UniProt P21453)
Test: S1P1 CRE-bla CHOK1 reporter assay (inhibition of Forskolin induced cAMP)
Format: cell-based
Settings: agonist activity range, Table 2; read-out: S1P1 ACTIVITY
Source text: A mammalian expression plasmid containing S1P1/EDG1 cloned into pcDNA3.1 was purchased from Missouri S&T cDNA Resource Centre. The nucleotide and amino acid sequence of human S1P1/EDG1 are published in Hla and Maciag (J Biol Chem, 265(1990), 9308-9313). S1P1/pcDNA3.1 was transfected into the CRE-bla CHO K1 (Invitrogen) cell line, and stable single cell clones were selected using standard techniques. Expression of functional SIP1/EDG1 receptor was confirmed by cell surface FACS with a S1P1 antibody (R&D Systems, clone 218713) and S1P-mediated inhibition of Forskolin induced cAMP.
Cells were seeded into 384-well black wall/clear bottom plates at 10^4 cells/well/19.5 μl assay media (DMEM-phenol free, 0.5% charcoal/dextran stripped serum, 2 mM glutamine, 0.1 mM NEAA, 1 mM Na-Pyruvate, 25 mM Hepes) and incubated for 18 hrs at 37° C. in 5% CO2. Dose response curves (10-point) were generated in 10 mM Hepes, 0.1% Pluronic F127, in the presence of Forskolin. Cells were treated with 0.5 μl compound in the presence of 2 μM Forskolin for 4 hrs at 37° C. The FRET-based β-lactamase fluorescent substrate (LiveBLAzer™ FRET B/G Loading Kit CC4-AM; Invitrogen) was prepared according to manufacturer's directions, and incubated with cells for 2 hrs at room temperature. Plates were read at Ex:410/Em:458 and Ex:410/Em:522, and the response ratio determined. Data was analyzed by non-linear regression to determine the EC50 for inhibition of Forskolin induced cAMP.

S1P1/EDG1, sequence (P21453 whole entry): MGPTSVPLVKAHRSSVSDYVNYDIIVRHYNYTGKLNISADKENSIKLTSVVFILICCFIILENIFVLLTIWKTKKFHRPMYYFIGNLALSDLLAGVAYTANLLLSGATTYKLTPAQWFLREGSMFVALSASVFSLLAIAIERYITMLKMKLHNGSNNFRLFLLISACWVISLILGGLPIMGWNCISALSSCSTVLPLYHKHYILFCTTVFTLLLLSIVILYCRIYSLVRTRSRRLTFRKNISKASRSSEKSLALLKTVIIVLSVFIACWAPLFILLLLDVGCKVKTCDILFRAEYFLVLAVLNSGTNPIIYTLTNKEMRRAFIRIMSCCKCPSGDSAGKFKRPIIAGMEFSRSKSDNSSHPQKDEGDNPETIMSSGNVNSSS

Structure (SMILES)	EC50
CC(C)Oc1ccc(-c2nnc(-c3cccc4c3CC[C@@H]4NC(=O)N3CCC(O)CC3)s2)cc1C#N [Compound 62]	500 to 5000 pM
CC(C)Oc1ccc(-c2nnc(-c3cccc4c3CC[C@@H]4NC(=O)N3CC(O)C3)s2)cc1C#N [Compound 64]	500 to 5000 pM
CC(C)Oc1ccc(-c2nnc(-c3cccc4c3CC[C@@H]4NC(=O)N3CC(O)C3)s2)cc1C#N [Compound 65]	50 to 500 pM
CC(C)Oc1ccc(-c2nnc(-c3cccc4c3CC[C@H]4NC(=O)N(C)C)s2)cc1C#N [Compound 66]	50 to 500 pM
CC(C)Oc1ccc(-c2nnc(-c3cccc4c3CC[C@@H]4NC(=O)N(C)C)s2)cc1C#N [Compound 67]	500 to 5000 pM
COC(=O)N[C@H]1CCc2c(-c3nnc(-c4ccc(OC(C)C)c(C#N)c4)s3)cccc21 [Compound 68]	50 to 500 pM
CC(C)Oc1ccc(-c2ncc(-c3cccc4c3CC[C@@H]4O)s2)cc1C#N [Compound 70, (S)-5-(5-(1-hydroxy-2,3-dihydro-1H-inden-4-yl)thiazol-2-yl)-2-isopropoxybenzonitrile]	500 to 5000 pM
CC(C)Oc1ccc(-c2ncc(-c3cccc4c3CC[C@@H]4NC(=O)CO)s2)cc1C#N [Compound 73, (S)-N-(4-(2-(3-cyano-4-isopropoxyphenyl)thiazol-5-yl)-2,3-dihydro-1H-inden-1-yl)-2-hydroxyacetamide]	50 to 500 pM
COCC(=O)N[C@H]1CCc2c(-c3cnc(-c4ccc(OC(C)C)c(C#N)c4)s3)cccc21 [Compound 75]	50 to 500 pM
COCC(=O)N[C@H]1CCc2c(-c3cnc(-c4ccc(OC(C)C)c(C#N)c4)s3)cccc21 [Compound 76, (S)-N-(4-(2-(3-cyano-4-isopropoxyphenyl)thiazol-5-yl)-2,3-dihydro-1H-inden-1-yl)-2-methoxyacetamide]	500 to 5000 pM
CC(C)Oc1ccc(-c2ncc(-c3cccc4c3CC[C@@H]4NC(=O)CN)s2)cc1C#N [Compound 77]	50 to 500 pM
CC(C)Oc1ccc(-c2ncc(-c3cccc4c3CC[C@@H]4NC(=O)CN)s2)cc1C#N [Compound 78]	500 to 5000 pM
CC(C)Oc1ccc(-c2ncc(-c3cccc4c3CC[C@@H]4NC(=O)[C@H](N)CO)s2)cc1C#N [Compound 79]	50 to 500 pM
CC(C)Oc1ccc(-c2ncc(-c3cccc4c3CC[C@@H]4NC(=O)CN(C)C)s2)cc1C#N [Compound 81]	500 to 5000 pM
CC(C)Oc1ccc(-c2ncc(-c3cccc4c3CC[C@@H]4NC(=O)Cc3ccccc3)s2)cc1C#N [Compound 83]	> 5000 pM
CC(C)Oc1ccc(-c2ncc(-c3cccc4c3CC[C@@H]4NC(=O)CN3CCCC3)s2)cc1C#N [Compound 85]	> 5000 pM
CC(=O)N[C@H]1CCc2c(-c3cnc(-c4ccc(OC(C)C)c(C#N)c4)s3)cccc21 [Compound 87]	50 to 500 pM
CC(=O)N[C@H]1CCc2c(-c3cnc(-c4ccc(OC(C)C)c(C#N)c4)s3)cccc21 [Compound 88]	500 to 5000 pM
COC(=O)N[C@H]1CCc2c(-c3cnc(-c4ccc(OC(C)C)c(C#N)c4)s3)cccc21 [Compound 89]	500 to 5000 pM
CC(C)Oc1ccc(-c2ncc(-c3cccc4c3CC[C@@H]4NCCO)s2)cc1C#N [Compound 92, (S)-5-(5-(1-((2-hydroxyethyl)amino)-2,3-dihydro-1H-inden-4-yl)thiazol-2-yl)-2-isopropoxybenzonitrile]	500 to 5000 pM
COCCN[C@H]1CCc2c(-c3cnc(-c4ccc(OC(C)C)c(C#N)c4)s3)cccc21 [Compound 93]	500 to 5000 pM
CC(C)Oc1ccc(-c2ncc(-c3cccc4c3CCC4N[C@H](C)CO)s2)cc1C#N (stereo partly drawn) [Compound 95]	500 to 5000 pM
CC(C)Oc1ccc(-c2ncc(-c3cccc4c3CC[C@@H]4NCC(=O)O)s2)cc1C#N [Compound 97, (S)-2-((4-(2-(3-cyano-4-isopropoxyphenyl)thiazol-5-yl)-2,3-dihydro-1H-inden-1-yl)amino)acetic acid]	50 to 500 pM
CC(C)Oc1ccc(-c2ncc(-c3cccc4c3CC[C@@H]4NCC(=O)N(C)C)s2)cc1C#N [Compound 98]	500 to 5000 pM
COC(=O)CN[C@H]1CCc2c(-c3cnc(-c4ccc(OC(C)C)c(C#N)c4)s3)cccc21 [Compound 99, (S)-methyl 2-((4-(2-(3-cyano-4-isopropoxyphenyl)thiazol-5-yl)-2,3-dihydro-1H-inden-1-yl)amino)acetate]	500 to 5000 pM
CC(C)Oc1ccc(-c2ncc(-c3cccc4c3CC[C@@H]4NCC(=O)N3CCCC3)s2)cc1C#N [Compound 100]	50 to 500 pM
CC(C)Oc1ccc(-c2ncc(-c3cccc4c3CC[C@@H]4NCC(=O)N3CCCC3)s2)cc1C#N [Compound 101]	> 5000 pM

Structure (SMILES)	EC50
CC(C)Oc1ccc(-c2ncc(-c3cccc4c3CC[C@@H]4NCC(=O)N3CC[C@H](O)C3)s2)cc1C#N [Compound 103]	50 to 500 pM
CC(C)Oc1ccc(-c2ncc(-c3cccc4c3CC[C@@H]4NCC(=O)N3CC[C@H](O)C3)s2)cc1C#N [Compound 104, 5-(5-((S)-1-((2-((S)-3-hydroxypyrrolidin-1-yl)-2-oxoethyl)amino)-2,3-dihydro-1H-inden-4-yl)thiazol-2-yl)-2-isopropoxybenzonitrile]	500 to 5000 pM
CC(C)Oc1ccc(-c2ncc(-c3cccc4c3CC[C@@H]4NCC(=O)N3CC[C@H](O)C3)s2)cc1C#N [Compound 105]	> 5000 pM
CC(C)Oc1ccc(-c2ncc(-c3cccc4c3CC[C@@H]4NCC(=O)N3CCC[C@H](O)C3)s2)cc1C#N [Compound 106]	> 5000 pM
CC(C)Oc1ccc(-c2ncc(-c3cccc4c3CC[C@@H]4NCC(=O)N3CCNCC3)s2)cc1C#N [Compound 107]	500 to 5000 pM
CC(C)Oc1ccc(-c2ncc(-c3cccc4c3CC[C@@H]4NCC(=O)N3CCNCC3)s2)cc1C#N [Compound 108]	> 5000 pM
CC(C)Oc1ccc(-c2ncc(-c3cccc4c3CC[C@@H]4NCc3ncc[nH]3)s2)cc1C#N [Compound 110, (S)-5-(5-(1-(((1H-imidazol-2-yl)methyl)amino)-2,3-dihydro-1H-inden-4-yl)thiazol-2-yl)-2-isopropoxybenzonitrile]	500 to 5000 pM
CC(C)Oc1ccc(-c2ncc(-c3cccc4c3CC[C@@H]4NS(C)(=O)=O)s2)cc1C#N [Compound 112, (S)-N-(4-(2-(3-cyano-4-isopropoxyphenyl)thiazol-5-yl)-2,3-dihydro-1H-inden-1-yl)methanesulfonamide]	50 to 500 pM
CCS(=O)(=O)N[C@H]1CCc2c(-c3cnc(-c4ccc(OC(C)C)c(C#N)c4)s3)cccc21 [Compound 113]	50 to 500 pM
COCCS(=O)(=O)N[C@H]1CCc2c(-c3cnc(-c4ccc(OC(C)C)c(C#N)c4)s3)cccc21 [Compound 115]	50 to 500 pM
COCCS(=O)(=O)N[C@H]1CCc2c(-c3cnc(-c4ccc(OC(C)C)c(C#N)c4)s3)cccc21 [Compound 116]	500 to 5000 pM
CC(C)Oc1ccc(-c2ncc(-c3cccc4c3CC[C@@H]4NS(=O)(=O)C3CC3)s2)cc1C#N [Compound 117]	50 to 500 pM
CC(C)Oc1ccc(-c2ncc(-c3cccc4c3CC[C@@H]4NS(=O)(=O)CCN3CCOCC3)s2)cc1C#N [Compound 121]	500 to 5000 pM
CC(C)Oc1ccc(-c2ncc(-c3cccc4c3CC[C@@H]4NS(=O)(=O)CCN(C)C)s2)cc1C#N [Compound 123]	500 to 5000 pM
CNCCS(=O)(=O)N[C@H]1CCc2c(-c3cnc(-c4ccc(OC(C)C)c(C#N)c4)s3)cccc21 [Compound 125]	500 to 5000 pM
CC(C)Oc1ccc(-c2ncc(-c3cccc4c3CC[C@@H]4NS(=O)(=O)CCN3CCC3)s2)cc1C#N [Compound 127]	500 to 5000 pM
CC(C)Oc1ccc(-c2ncc(-c3cccc4c3CC[C@@H]4NS(=O)(=O)CCN3CCC3)s2)cc1C#N [Compound 128]	> 5000 pM
CC(C)Oc1ccc(-c2ncc(-c3cccc4c3CC[C@@H]4NS(=O)(=O)CCN3CCCC3)s2)cc1C#N [Compound 129]	> 5000 pM
CC(C)Oc1ccc(-c2ncc(-c3cccc4c3CC[C@@H]4NS(=O)(=O)CCN3CCCC3)s2)cc1C#N [Compound 130]	500 to 5000 pM
CC(C)Oc1ccc(-c2ncc(-c3cccc4c3CC[C@@H]4NS(=O)(=O)CCN3CC[C@H](O)C3)s2)cc1C#N [Compound 131]	500 to 5000 pM
CC(C)Oc1ccc(-c2ncc(-c3cccc4c3CC[C@@H]4NS(=O)(=O)CCN3CC[C@H](N)C3)s2)cc1C#N [Compound 135]	> 5000 pM
CC(C)Oc1ccc(-c2ncc(-c3cccc4c3CC[C@@H]4NS(=O)(=O)CCN3CC[C@H](N(C)C)C3)s2)cc1C#N [Compound 137]	> 5000 pM
CC(C)Oc1ccc(-c2ncc(-c3cccc4c3CC[C@@H]4NS(=O)(=O)CCN3CC[C@@H](N(C)C)C3)s2)cc1C#N [Compound 138]	> 5000 pM
CC(C)Oc1ccc(-c2ncc(-c3cccc4c3CC[C@@H]4NS(=O)(=O)CCN3CCCCC3)s2)cc1C#N [Compound 139]	> 5000 pM
CC(C)Oc1ccc(-c2ncc(-c3cccc4c3CC[C@@H]4NS(=O)(=O)CCN3CCC[C@H](O)C3)s2)cc1C#N [Compound 142]	500 to 5000 pM
CC(C)Oc1ccc(-c2ncc(-c3cccc4c3CC[C@@H]4NS(=O)(=O)CCN3CCC[C@H](O)C3)s2)cc1C#N [Compound 144]	500 to 5000 pM
CC(C)Oc1ccc(-c2ncc(-c3cccc4c3CC[C@@H]4NS(=O)(=O)CCN3CCC(O)CC3)s2)cc1C#N [Compound 145]	> 5000 pM
